Measurements: ChEMBL document CHEMBL5291721, “A preclinical secondary pharmacology resource illuminates target-adverse drug reaction associations of marketed drugs” (Nat Commun, 2023)

Assays:
[1] = biological target: Sodium-dependent serotonin transporter (Homo sapiens, UniProt P31645)
[2] = biological target: Voltage-gated inwardly rectifying potassium channel KCNH2 (Homo sapiens, UniProt Q12809); type: functional; conditions: read-out: AC50
[3] = biological target: 3',5'-cyclic-AMP phosphodiesterase 4D (Homo sapiens, UniProt Q08499); type: functional
Chain of 3',5'-cyclic-AMP phosphodiesterase 4D (Q08499 whole entry): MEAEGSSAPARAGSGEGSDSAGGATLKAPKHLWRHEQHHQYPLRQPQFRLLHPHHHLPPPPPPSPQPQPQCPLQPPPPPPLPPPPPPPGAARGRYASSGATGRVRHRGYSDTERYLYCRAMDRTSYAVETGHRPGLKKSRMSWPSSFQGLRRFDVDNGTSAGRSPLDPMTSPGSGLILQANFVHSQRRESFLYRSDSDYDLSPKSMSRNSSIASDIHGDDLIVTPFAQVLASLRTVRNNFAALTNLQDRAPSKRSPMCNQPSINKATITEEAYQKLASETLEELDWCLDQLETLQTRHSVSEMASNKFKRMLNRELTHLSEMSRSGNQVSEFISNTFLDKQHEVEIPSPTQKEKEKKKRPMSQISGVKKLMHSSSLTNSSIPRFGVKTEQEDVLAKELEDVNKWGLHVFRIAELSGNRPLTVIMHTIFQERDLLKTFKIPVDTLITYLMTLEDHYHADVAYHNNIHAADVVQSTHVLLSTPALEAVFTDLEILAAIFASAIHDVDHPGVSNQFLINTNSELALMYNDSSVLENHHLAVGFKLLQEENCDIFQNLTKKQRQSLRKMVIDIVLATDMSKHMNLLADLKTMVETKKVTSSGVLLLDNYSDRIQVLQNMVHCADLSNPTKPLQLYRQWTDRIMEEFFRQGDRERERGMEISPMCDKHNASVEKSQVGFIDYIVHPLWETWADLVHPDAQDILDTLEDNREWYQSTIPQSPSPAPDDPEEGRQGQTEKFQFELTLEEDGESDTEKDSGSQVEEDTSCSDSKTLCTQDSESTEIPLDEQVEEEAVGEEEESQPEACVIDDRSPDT

Adenosine receptor A2a = Adenosine receptor A2a (Homo sapiens, UniProt P29274)
Chain of Adenosine receptor A2a (P29274 whole entry): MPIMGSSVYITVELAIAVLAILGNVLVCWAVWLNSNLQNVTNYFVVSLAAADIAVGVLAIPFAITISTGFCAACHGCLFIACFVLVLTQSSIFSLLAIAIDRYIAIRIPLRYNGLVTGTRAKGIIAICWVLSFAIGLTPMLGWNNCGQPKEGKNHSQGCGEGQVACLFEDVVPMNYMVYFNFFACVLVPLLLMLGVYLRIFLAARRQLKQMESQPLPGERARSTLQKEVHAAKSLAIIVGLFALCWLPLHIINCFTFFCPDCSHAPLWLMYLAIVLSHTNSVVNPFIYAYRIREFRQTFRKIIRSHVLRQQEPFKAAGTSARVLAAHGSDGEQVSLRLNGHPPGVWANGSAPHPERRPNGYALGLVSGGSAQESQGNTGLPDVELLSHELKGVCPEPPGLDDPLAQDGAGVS

[4] = biological target: Sodium-dependent noradrenaline transporter (Homo sapiens, UniProt P23975)
Chain of Sodium-dependent noradrenaline transporter (P23975 whole entry): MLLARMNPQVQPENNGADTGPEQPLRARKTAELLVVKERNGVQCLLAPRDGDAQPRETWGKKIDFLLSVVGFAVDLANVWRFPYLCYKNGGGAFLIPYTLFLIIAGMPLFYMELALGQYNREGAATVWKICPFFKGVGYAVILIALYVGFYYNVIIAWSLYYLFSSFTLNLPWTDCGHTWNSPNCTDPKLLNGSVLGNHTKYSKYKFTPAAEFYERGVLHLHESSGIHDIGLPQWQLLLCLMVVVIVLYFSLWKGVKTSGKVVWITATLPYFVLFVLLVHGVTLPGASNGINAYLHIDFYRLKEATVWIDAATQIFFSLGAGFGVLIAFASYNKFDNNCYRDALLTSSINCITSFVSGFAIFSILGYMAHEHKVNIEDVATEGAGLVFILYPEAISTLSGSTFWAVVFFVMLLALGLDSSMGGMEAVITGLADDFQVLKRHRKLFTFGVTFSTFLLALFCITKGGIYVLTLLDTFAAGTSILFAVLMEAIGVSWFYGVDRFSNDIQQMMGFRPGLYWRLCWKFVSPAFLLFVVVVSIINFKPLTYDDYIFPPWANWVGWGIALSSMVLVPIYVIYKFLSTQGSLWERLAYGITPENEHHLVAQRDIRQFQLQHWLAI

[5] = biological target: Beta-1 adrenergic receptor (Homo sapiens, UniProt P08588); type: functional
Chain of Beta-1 adrenergic receptor (P08588 whole entry): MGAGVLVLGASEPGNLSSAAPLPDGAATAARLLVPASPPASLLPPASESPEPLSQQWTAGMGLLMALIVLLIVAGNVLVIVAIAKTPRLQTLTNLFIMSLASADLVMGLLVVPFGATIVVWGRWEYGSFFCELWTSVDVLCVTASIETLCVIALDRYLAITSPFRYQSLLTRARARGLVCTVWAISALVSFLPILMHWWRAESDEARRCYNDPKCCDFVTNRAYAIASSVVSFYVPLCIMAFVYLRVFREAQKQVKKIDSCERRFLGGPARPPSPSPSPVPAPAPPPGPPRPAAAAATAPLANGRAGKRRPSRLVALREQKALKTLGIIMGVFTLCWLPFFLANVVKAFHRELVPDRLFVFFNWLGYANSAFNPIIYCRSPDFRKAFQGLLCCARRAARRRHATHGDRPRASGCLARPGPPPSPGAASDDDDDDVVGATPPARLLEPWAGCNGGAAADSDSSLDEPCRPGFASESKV

Adenosine receptor A3 = biological target: T1, Adenosine receptor A3 (Homo sapiens, UniProt P0DMS8)
T1 sequence (P0DMS8 whole entry): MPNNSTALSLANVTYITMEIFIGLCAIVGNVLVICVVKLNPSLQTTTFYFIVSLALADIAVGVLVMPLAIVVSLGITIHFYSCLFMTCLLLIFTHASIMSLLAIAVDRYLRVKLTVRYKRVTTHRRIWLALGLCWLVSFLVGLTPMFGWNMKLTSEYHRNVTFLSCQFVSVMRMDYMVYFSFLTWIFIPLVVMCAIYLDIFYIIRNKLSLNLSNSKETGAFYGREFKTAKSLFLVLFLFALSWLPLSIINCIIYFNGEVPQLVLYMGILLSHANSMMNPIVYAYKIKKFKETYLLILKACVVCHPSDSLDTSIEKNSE

Endothelin-1 receptor = biological target: T2, Endothelin-1 receptor (Homo sapiens, UniProt P25101)
T2 sequence (P25101 whole entry): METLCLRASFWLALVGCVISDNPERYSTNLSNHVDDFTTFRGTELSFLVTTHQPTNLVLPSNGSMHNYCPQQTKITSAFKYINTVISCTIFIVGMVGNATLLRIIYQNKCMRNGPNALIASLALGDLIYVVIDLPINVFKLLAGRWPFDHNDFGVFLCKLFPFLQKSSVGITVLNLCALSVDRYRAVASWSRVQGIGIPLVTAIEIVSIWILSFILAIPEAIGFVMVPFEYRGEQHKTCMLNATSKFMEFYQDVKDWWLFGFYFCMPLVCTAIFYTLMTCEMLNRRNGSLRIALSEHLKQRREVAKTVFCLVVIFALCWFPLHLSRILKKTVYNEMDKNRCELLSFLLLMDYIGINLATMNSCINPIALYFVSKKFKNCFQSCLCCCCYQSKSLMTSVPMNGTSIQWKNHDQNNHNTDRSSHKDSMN

[6] = biological target: Growth hormone secretagogue receptor type 1 (Homo sapiens, UniProt Q92847)
Chain of Growth hormone secretagogue receptor type 1 (Q92847 whole entry): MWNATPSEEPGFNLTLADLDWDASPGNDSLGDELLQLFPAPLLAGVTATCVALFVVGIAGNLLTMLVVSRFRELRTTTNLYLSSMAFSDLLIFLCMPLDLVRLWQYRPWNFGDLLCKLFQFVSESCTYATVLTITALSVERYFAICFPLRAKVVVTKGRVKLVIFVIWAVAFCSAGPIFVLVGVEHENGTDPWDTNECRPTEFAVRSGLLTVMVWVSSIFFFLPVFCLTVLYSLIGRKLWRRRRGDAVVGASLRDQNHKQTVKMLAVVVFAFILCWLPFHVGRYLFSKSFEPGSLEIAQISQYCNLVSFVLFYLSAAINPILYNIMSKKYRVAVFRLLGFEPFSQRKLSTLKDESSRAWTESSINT

[7] = biological target: T3, Muscarinic acetylcholine receptor M2 (Homo sapiens, UniProt P08172); type: functional, cell-based
T3 sequence (P08172 whole entry): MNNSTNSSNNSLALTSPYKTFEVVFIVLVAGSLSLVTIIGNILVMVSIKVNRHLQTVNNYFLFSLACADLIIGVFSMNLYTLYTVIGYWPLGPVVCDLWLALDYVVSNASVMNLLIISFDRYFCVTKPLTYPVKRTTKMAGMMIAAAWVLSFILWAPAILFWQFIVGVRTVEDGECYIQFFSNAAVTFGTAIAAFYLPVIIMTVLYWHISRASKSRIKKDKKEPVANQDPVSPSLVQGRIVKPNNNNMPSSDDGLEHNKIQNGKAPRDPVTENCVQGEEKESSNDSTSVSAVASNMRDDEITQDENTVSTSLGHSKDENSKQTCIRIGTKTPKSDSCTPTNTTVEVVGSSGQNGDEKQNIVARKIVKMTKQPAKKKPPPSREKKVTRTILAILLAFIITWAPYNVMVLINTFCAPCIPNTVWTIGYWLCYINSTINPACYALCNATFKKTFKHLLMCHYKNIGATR

[8] = biological target: T4, 5-hydroxytryptamine receptor 1A (Homo sapiens, UniProt P08908); type: functional, cell-based
T4 sequence (P08908 whole entry): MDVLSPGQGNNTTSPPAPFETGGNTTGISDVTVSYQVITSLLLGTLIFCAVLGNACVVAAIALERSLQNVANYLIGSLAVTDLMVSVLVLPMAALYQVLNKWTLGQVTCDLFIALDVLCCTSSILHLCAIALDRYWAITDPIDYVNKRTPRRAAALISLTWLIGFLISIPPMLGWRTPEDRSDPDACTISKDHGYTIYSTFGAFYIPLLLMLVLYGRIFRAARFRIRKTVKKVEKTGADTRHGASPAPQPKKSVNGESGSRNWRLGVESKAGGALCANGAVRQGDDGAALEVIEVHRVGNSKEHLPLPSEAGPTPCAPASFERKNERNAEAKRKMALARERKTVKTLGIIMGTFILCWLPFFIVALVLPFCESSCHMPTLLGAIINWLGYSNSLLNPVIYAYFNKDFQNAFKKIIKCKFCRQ

[9] = biological target: cGMP-inhibited 3',5'-cyclic phosphodiesterase 3A (Homo sapiens, UniProt Q14432); type: functional
Chain of cGMP-inhibited 3',5'-cyclic phosphodiesterase 3A (Q14432 whole entry): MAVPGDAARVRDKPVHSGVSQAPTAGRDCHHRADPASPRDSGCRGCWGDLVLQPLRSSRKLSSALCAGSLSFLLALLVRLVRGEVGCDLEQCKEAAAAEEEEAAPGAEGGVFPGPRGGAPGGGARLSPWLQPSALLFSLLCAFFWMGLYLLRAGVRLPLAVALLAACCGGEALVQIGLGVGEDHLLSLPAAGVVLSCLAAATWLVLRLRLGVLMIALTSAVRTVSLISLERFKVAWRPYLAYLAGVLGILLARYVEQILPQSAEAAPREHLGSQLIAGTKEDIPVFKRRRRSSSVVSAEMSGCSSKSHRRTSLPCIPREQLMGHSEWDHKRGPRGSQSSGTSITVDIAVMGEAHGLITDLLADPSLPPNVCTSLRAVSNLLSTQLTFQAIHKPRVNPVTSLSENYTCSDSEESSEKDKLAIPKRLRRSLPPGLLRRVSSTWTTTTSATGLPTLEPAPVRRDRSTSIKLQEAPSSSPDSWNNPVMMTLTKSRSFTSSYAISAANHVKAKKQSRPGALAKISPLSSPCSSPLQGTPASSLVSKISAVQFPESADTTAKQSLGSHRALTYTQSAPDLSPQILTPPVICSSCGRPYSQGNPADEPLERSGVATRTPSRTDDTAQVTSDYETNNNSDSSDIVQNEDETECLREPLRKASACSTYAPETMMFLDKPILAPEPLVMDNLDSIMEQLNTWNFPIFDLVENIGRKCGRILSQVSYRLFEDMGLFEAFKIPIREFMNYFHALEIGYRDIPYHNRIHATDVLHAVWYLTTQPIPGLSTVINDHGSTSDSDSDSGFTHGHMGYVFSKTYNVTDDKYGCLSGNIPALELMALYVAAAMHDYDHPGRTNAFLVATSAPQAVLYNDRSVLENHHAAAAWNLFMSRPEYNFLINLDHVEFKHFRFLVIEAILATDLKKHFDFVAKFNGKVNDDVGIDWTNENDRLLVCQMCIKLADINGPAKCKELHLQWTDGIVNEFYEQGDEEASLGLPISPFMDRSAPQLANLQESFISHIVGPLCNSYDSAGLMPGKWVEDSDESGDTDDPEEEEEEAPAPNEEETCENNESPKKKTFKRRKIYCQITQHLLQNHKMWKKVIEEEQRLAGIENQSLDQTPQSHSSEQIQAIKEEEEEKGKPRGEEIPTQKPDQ

D(3) dopamine receptor = D(3) dopamine receptor (Homo sapiens, UniProt P35462)
Chain of D(3) dopamine receptor (P35462 whole entry): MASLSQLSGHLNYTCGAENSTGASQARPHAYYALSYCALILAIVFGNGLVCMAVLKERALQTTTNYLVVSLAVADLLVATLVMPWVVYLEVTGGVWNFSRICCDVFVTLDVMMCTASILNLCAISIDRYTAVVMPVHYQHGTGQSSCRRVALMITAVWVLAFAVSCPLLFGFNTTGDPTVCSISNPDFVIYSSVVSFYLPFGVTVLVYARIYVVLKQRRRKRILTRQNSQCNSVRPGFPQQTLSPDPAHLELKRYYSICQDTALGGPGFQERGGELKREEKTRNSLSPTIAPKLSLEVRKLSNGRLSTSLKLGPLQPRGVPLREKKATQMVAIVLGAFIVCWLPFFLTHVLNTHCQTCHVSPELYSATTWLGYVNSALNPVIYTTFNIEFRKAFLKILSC

[10] = biological target: T5, Cholecystokinin receptor type A (Homo sapiens, UniProt P32238)
T5 sequence (P32238 whole entry): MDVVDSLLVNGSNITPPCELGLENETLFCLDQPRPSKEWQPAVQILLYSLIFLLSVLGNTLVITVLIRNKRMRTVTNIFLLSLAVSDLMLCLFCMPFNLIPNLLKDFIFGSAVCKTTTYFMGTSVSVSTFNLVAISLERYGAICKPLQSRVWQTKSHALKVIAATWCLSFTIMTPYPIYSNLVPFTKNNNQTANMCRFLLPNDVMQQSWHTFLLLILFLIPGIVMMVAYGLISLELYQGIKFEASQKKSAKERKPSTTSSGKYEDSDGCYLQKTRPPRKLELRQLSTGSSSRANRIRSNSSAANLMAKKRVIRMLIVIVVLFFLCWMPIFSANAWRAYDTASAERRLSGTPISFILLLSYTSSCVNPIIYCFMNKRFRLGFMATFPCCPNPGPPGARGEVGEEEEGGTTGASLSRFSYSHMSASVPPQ

Mu-type opioid receptor = Mu-type opioid receptor (Homo sapiens, UniProt P35372); test: biochemical; type: functional
Note: assay procedure not described here.

Chain of Sodium-dependent serotonin transporter (P31645 whole entry): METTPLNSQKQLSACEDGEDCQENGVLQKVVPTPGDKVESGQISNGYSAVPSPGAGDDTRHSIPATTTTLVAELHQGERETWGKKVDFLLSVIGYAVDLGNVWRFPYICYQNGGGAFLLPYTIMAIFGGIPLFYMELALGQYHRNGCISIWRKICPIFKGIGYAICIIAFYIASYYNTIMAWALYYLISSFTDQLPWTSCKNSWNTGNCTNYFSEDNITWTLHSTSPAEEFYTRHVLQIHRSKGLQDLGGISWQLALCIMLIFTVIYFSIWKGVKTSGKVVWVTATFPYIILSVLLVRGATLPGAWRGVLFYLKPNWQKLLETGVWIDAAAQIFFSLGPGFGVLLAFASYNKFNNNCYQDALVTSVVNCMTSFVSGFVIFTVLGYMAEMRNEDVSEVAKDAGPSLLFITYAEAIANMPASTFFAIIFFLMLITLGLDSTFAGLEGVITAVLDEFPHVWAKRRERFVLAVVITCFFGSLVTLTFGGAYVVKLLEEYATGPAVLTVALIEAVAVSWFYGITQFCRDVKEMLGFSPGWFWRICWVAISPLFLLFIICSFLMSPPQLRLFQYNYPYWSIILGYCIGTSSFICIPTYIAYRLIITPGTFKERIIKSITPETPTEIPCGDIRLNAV

| SMILES | AC50 [1] [µM] | AC50 [2] [µM] | AC50 [3] [µM] | AC50 (Adenosine receptor A2a) [µM] | AC50 [4] [µM] | AC50 [5] [µM] | AC50 (Adenosine receptor A3) [µM] | AC50 (Endothelin-1 receptor) [µM] | AC50 [6] [µM] | AC50 [7] [µM] | AC50 [8] [µM] | AC50 [9] [µM] | AC50 (D(3) dopamine receptor) [µM] | AC50 [10] [µM] | AC50 (Mu-type opioid receptor) [µM] |
| --- | --- | --- | --- | --- | --- | --- | --- | --- | --- | --- | --- | --- | --- | --- | --- |
| CC(CCc1ccccc1)NC(C)C(O)c1ccc(O)cc1 (centres undefined) [NYLIDRIN] | > 10 | 6.3 | > 30 | > 30 | 11 | 3.95 | > 30 | > 30 | > 30 | > 10 | > 10 | > 30 | 1.3 | > 30 |  |
| O=C1Nc2ccc(Cl)cc2C(c2ccccc2)=NC1O (centres undefined) [OXAZEPAM] | > 10 |  | > 10 | > 30 | > 10 | > 10 | > 30 | > 30 | > 30 | > 10 | > 10 | > 30 | > 10 | > 30 |  |
| CC(=O)O[C@H]1C[C@@H]2CC[C@@H]3[C@H](CC[C@@]4(C)[C@H]3C[C@H]([N+]3(C)CCCCC3)[C@@H]4OC(C)=O)[C@@]2(C)C[C@@H]1[N+]1(C)CCCCC1 [PANCURONIUM] | > 10 | 1.26 | > 30 | > 10 | > 10 | > 10 | > 10 |  | > 10 | > 10 | > 10 | > 30 | > 30 | > 10 | > 30 |
| CC1(C)C(C=C(Cl)Cl)C1C(=O)OCc1cccc(Oc2ccccc2)c1 (centres undefined) [PERMETHRIN] | > 10 | > 30 | > 30 | > 10 | > 10 | > 10 | > 10 |  | > 10 | > 10 | > 10 | > 30 | > 30 | > 10 |  |
| NC(=O)CCC/N=C(\c1ccc(Cl)cc1)c1cc(F)ccc1O [PROGABIDE] | > 10 | > 30 | > 10 | > 10 | > 10 | > 10 | > 10 |  | > 10 | > 10 | > 10 | > 30 | > 30 | > 10 |  |
| C=CC(N)CCC(=O)O (centres undefined) [VIGABATRIN] | 12.2 | > 30 | > 30 | > 10 | 21.7 | > 10 | > 10 |  | > 10 | > 10 | > 10 | > 30 | > 30 | > 10 |  |
| N#C[C@@H]1CCCN1C(=O)CNC12CC3CC(CC(O)(C3)C1)C2 [VILDAGLIPTIN] | > 30 | > 30 | > 30 | > 30 | > 30 | > 10 | > 30 |  | > 30 | > 30 | > 30 | > 30 | > 30 | > 30 | > 30 |
